Holding throughout (type): cell-based
The subject of assay [1] is TNF production from human peripheral blood mononuclear cells (PBMC). Nature of the assay: TNF production from PBMC stimulated with LPS, LTA, PGN or Pam3CSK4, 24 h, Cytometric Bead Array. As to conditions: for TNF % of control / TNF: Table 18. The method, then:
(§1) Peripheral blood was drawn from healthy volunteers (with approval from the relevant ethical committee in Denmark). Heparinized blood was diluted 1/1 v/v with RPMI and were subjected to Ficoll density centrifugation within 2 h of drawing. Plasma was collected from the top from individual donors and was kept on ice until it was used at 2% in the culture medium (autologous culture medium). Isolated PBMC were resuspended in autologous culture medium and seeded in 96-well culture plates with 255.000 cells per well in a total of 200 μl. […] The concentrations used for stimulation were optimized on 3 different donors in initial experiments, for LPS two different concentrations were used to be sure to be on a cytokine level that is possible to modulate. In some experiments PBMC were treated with Dexamethason and Indomethacin alone and together with LPS or LTA as a control on downregulation of inflammatory cytokines. The supernatants were collected after incubation at 37° C. for 24 hours, and stored at −80° C. until cytokine measurement. Viability was measured by Alamar Blue (Biosource, DALL 1100) in all experiments and in some cases also by MTS (Promega) according to manufacturer's instruction and was in some experiments also judged by counting of the cells by a Nucleocounter.
(§2) Cytokine production in supernatants was measured by flow cytometry with a human inflammation cytometric bead array (CBA) according to manufacturer's instructions (BD) on a FACSarray flow cytometer. The following cytokines were measured: IL-8, IL-1β, IL-10, TNF, IL-12 p70, IL-6. In some experiments, cytokines were measured by ELISA kits from R&D systems (IL-10, TNF-α, IL-1β) according to the manufacturer' instruction.
(§3) All experiments were performed at least twice, with representative results shown. The data presented are expressed as mean plus/minus standard deviation (SD). […] Differences were considered significant for p<0.05.
Example 3 was carried out essentially as described in Example 2. […]

For assay [2], the system named is IL-1β production from human peripheral blood mononuclear cells (PBMC). Nature of the assay: IL-1β production from PBMC stimulated with LPS or LTA, 24 h, Cytometric Bead Array. As to conditions: Table 20. The method, then: as §1, §2, §3
Assay [3] concerns IL-10 production from human peripheral blood mononuclear cells (PBMC). Put plainly: IL-10 production from PBMC stimulated with LPS, LTA or PGN, 24 h, Cytometric Bead Array. Conditions: Table 19. The procedure: as §1, §2, §3
Assay [4] concerns TNF production from mouse peripheral blood mononuclear cells (PBMC). Nature of the assay: TNF production from mouse PBMC, mouse inflammation CBA. The procedure:
Mouse peripheral blood mononuclear cells were isolated from blood of ten NMRI mice. In short, heparinized blood was diluted 1/1 v/v with RPMI and subjected to Ficoll density centrifugation within 2 h of drawing. Plasma was collected from the top and discarded. Isolated PBMC were resuspended in culture medium (RPMI 1640 (Gibco, 42401) w/1% penicillin and streptomycin and 1% L-Glutamine) and seeded in 96-well culture plates with 115.500 cells per well in a total of 200 μl. […] The supernatants were collected after incubation at 37° C. for 24 hours, and stored at −80° C. until cytokine measurement.
Cytokine production in supernatants was measured by flow cytometry with a mouse inflammation cytometric bead array (CBA) according to manufacturer's instructions (BD) on a FACSarray flow cytometer.

Where [5] appears, read: test compound 1 μg/ml, LPS 0.6 ng/ml.
Where [6] appears, read: test compound 1 μg/ml, LPS 20 ng/ml.
[7] abbreviates: test compound 10 μg/ml, LPS 0.6 ng/ml.
Setting [8] is: test compound 10 μg/ml, LPS 20 ng/ml.
[9] abbreviates: test compound 40 μg/ml, LPS 0.6 ng/ml.
[10] abbreviates: test compound 40 μg/ml, LPS 20 ng/ml.
The mark [11] stands for this setting: test compound 1 μg/ml, Medium, non-treated 0.
The mark [12] stands for this setting: test compound 10 μg/ml, Medium, non-treated 0.
[13] abbreviates: test compound 40 μg/ml, Medium, non-treated 0.

Where no end group is shown, it is not given here.

Take `COc1ccc2c(c1)c(CC(=O)O)c(C)n2C(=O)c1ccc(Cl)cc1` [Indomethacin, reference compound]: the “TNF inhibition (positive controls)” value in assay [1] (PBMC stimulated with LPS or LTA, Table 13) is recorded as “only inhibited TNF (Table 13) after stimulation with LTA”.

Take “hBD1: human beta defensin 1, SEQ ID NO:1, obtained from Peptide Institute Inc. (DHYNCVSSGGQCLYSACPIFTKIQGTCYRGKAKCCK; ends and bridges not checked; cysteine pairing not given here; listed as Homo sapiens)”: the “TNF % of control” value stood at 65% in assay [1] (setting [5]); 64% in assay [1] (setting [6]); 28% in assay [1] (setting [7]); 61% in assay [1] (setting [8]); 13% in assay [1] (setting [9]); 46% in assay [1] (setting [10]). The TNF came to 474 pg/mL in assay [1] (test compound 1 μg/ml, LPS 0.6 ng/ml, non-treated 728); 1395 pg/mL in assay [1] (test compound 1 μg/ml, LPS 20 ng/ml, non-treated 2164); 1 pg/mL in assay [1] (test compound 1 μg/ml, Medium, non-treated 1); 203 pg/mL in assay [1] (test compound 10 μg/ml, LPS 0.6 ng/ml, non-treated 728); 1311 pg/mL in assay [1] (test compound 10 μg/ml, LPS 20 ng/ml, non-treated 2164); 0 pg/mL in assay [1] (test compound 10 μg/ml, Medium, non-treated 1). For the same compound, the TNF was found to be 91 pg/mL in assay [1] (test compound 40 μg/ml, LPS 0.6 ng/ml, non-treated 728); 999 pg/mL in assay [1] (test compound 40 μg/ml, LPS 20 ng/ml, non-treated 2164); 0 pg/mL in assay [1] (test compound 40 μg/ml, Medium, non-treated 1). Moreover, the “IL-1β % of control” value was determined as 69% in assay [2] (setting [5]); 82% in assay [2] (setting [6]); 54% in assay [2] (setting [7]); 75% in assay [2] (setting [8]); 41% in assay [2] (setting [9]); 63% in assay [2] (setting [10]). The IL-1β in assay [2] (test compound 1 μg/ml, LPS 0.6 ng/ml, non-treated 741) came to 512 pg/mL; in assay [2] (test compound 1 μg/ml, LPS 20 ng/ml, non-treated 2544), 2087 pg/mL; in assay [2] (setting [11]), 0 pg/mL; in assay [2] (test compound 10 μg/ml, LPS 0.6 ng/ml, non-treated 741) it was 401 pg/mL; in assay [2] (test compound 10 μg/ml, LPS 20 ng/ml, non-treated 2544), 1913 pg/mL; in assay [2] (setting [12]), 0 pg/mL. Moreover, the IL-1β came out at 302 pg/mL in assay [2] (test compound 40 μg/ml, LPS 0.6 ng/ml, non-treated 741); 1599 pg/mL in assay [2] (test compound 40 μg/ml, LPS 20 ng/ml, non-treated 2544); 0 pg/mL in assay [2] (setting [13]). In addition, the “IL-10 % of control” value worked out at 108% in assay [3] (setting [5]); 85% in assay [3] (setting [6]); 114% in assay [3] (setting [7]); 90% in assay [3] (setting [8]); 104% in assay [3] (setting [9]); 102% in assay [3] (setting [10]). Also, the IL-10 in assay [3] (test compound 1 μg/ml, LPS 0.6 ng/ml, non-treated 66) was found to be 71 pg/mL; in assay [3] (test compound 1 μg/ml, LPS 20 ng/ml, non-treated 111), 95 pg/mL; in assay [3] (setting [11]) it was 0 pg/mL; in assay [3] (test compound 10 μg/ml, LPS 0.6 ng/ml, non-treated 66), 76 pg/mL; in assay [3] (test compound 10 μg/ml, LPS 20 ng/ml, non-treated 111), 100 pg/mL; in assay [3] (setting [12]) it was 0 pg/mL. The IL-10 in assay [3] (test compound 40 μg/ml, LPS 0.6 ng/ml, non-treated 66) was found to be 69 pg/mL; in assay [3] (test compound 40 μg/ml, LPS 20 ng/ml, non-treated 111), 113 pg/mL; in assay [3] (setting [13]) it was 0 pg/mL.

Regarding “mBD3: mouse beta defensin 3, SEQ ID NO:6, prepared with the same protocol as hBD2 (KINNPVSCLRKGGRCWNRCIGNTRQIGSCGVPFLKCCKRK; ends and bridges not checked; cysteine pairing not given here; listed as Mus musculus)”, in assay [1] (Table 23), the “Secretion of TNF from human PBMCs” value is “downregulating the secretion of TNF from human PBMCs to the same extend as hBD2 and dexamethason”. Further, the TNF turned out to be 1600 pg/mL in assay [4] (mBD3 1 μg/ml, LPS 20 ng/ml, untreated 2063); 347 pg/mL in assay [4] (mBD3 1 μg/ml, Medium, untreated 578); 297 pg/mL in assay [4] (mBD3 10 μg/ml, LPS 20 ng/ml, untreated 2063); 180 pg/mL in assay [4] (mBD3 10 μg/ml, Medium, untreated 578); 195 pg/mL in assay [4] (mBD3 100 μg/ml, LPS 20 ng/ml, untreated 2063); 182 pg/mL in assay [4] (mBD3 100 μg/ml, Medium, untreated 578).

(Values after patent US8232248B2, “Treatment of rheumatoid arthritis with mammal beta defensins” (Novozymes Adenium Biotech A/S, priority 2008, dated 2012).)
